Positions of bridges follow the written chain, without caps; N, C: chain ends. Non-standard residues stand in square brackets, D forms with d. Residues, ends and D or L forms follow the SMILES beside them. No end group written: not given here. Cha = N[C@@H](CC1CCCCC1)C(=O)O; Pen = CC(C)(S)[C@H](N)C(=O)O
System: rabbit aortic rings

Compound	EC50 (read-out: EC50 in the rabbit aorta, relaxation of norepinephrine precontracted rings, n = 8) [nM]	Relative Potencies to ANP-(103-126), Rabbit Aorta (relaxation of norepinephrine (50 nM) precontracted rings, EC50 compared with ANP-(103-126))
CC[C@H](C)[C@@H]1NC(=O)[C@H](CCCNC(=N)N)NC(=O)[C@H](CC(=O)O)NC(=O)[C@H]([C@@H](C)CC)NC(=O)[C@H](CCCNC(=N)N)NC(=O)CNC(=O)CNC(=O)[C@H](Cc2ccccc2)NC(=O)[C@@H](NC(=O)[C@H](CO)NC(=O)[C@@H](N)CO)CSSC[C@@H](C(=O)N[C@@H](CC(N)=O)C(=O)N[C@@H](CO)C(=O)N[C@@H](Cc2ccccc2)C(=O)N[C@@H](CCCNC(=N)N)C(=O)N[C@@H](Cc2ccc(O)cc2)C(=O)O)NC(=O)CNC(=O)[C@H](CC(C)C)NC(=O)CNC(=O)[C@H](CO)NC(=O)[C@H](CCC(N)=O)NC(=O)[C@H](C)NC(=O)CNC1=O [ANP-(103-126), ATRIOPEPTIN III] (H-SSCFGGRIDRIGAQSGLGCNSFRY-OH; disulfide 3-19)	2.3 ± 1.6	–
[Pen][Cha]GRIDRIG-NH2 [Peptide No. 6]	–	0.010
